# Experiment: Substantivity of silicone gum formulation on skin (FT-IR/ATR)
# Type: in vivo, human
# Conditions: 10 seconds after spraying
# Procedure: The forearms of volunteers were cleaned and then sprayed in several areas with the formulation of Example 4. […] A FT-IR/ATR cell was used to take an IR spectrum at each area sprayed. […] An IR of the cleansed forearm skin was used as a control blank. The percentage of silicone remaining on the skin was calculated by comparing the height of the specific silicon peak height (1255 cm^-1)/ specific skin peak height (1538 cm^-1) in the blank test.
smiles,measurement,value
"C[Si](C)(C)O[Si](C)(C)C [HMDS, hexamethyldisiloxane]",detectability on the skin,not detectable

# From patent EP0966972B1, “Topical composition containing silicon gum” (Dow Corning France S.A., priority 1998, dated 1999)
